The record followed here is ChEMBL document CHEMBL3046549, “Comparative quantitative structureactivity relationship study of some 1-aminocyclopentyl-3-carboxyamides as CCR2 inhibitors using stepwise MLR, FA-MLR, and GA-PLS” (Med Chem Res, 2012).

Sequence of C-C chemokine receptor type 2 (P41597 whole entry): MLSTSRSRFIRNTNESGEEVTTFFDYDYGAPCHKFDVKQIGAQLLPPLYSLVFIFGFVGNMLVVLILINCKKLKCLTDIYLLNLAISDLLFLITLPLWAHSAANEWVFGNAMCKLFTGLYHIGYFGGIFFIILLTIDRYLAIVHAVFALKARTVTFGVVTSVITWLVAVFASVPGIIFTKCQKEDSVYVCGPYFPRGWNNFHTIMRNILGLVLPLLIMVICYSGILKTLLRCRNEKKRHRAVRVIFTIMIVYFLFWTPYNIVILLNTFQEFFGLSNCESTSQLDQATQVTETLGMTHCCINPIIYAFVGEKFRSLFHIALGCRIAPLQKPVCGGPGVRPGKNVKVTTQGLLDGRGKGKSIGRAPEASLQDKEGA

The assay has as its target C-C chemokine receptor type 2 (Homo sapiens, UniProt P41597). Nature of the assay: Antagonist activity at CCR2 (unknown origin).
Turning to `CC1COCC(C)C1N[C@@H]1CC[C@@](C(=O)NCc2cc(C(F)(F)F)cc(C(F)(F)F)c2)(C(C)C)C1` (stereo partly specified), the IC50 is 230 nM.
To `CC(C)[C@]1(C(=O)NCc2cc(C(F)(F)F)cc(C(F)(F)F)c2)CC[C@@H](NC2CCOCC2O)C1` (stereo partly specified) belongs 123 nM.
In the case of `CCC1COCCC1N[C@@H]1CC[C@@](C(=O)NCc2cc(C(F)(F)F)cc(C(F)(F)F)c2)(C(C)C)C1` (stereo partly specified), the IC50 is 1.5 nM.
`CC(C)[C@]1(C(=O)NCc2cc(C(F)(F)F)cc(C(F)(F)F)c2)CC[C@@H](NC2CCOCC2)C1` showed a half-inhibitory concentration (IC50) of 56 nM.
`CC(C)[C@]1(C(=O)NCc2cc(C(F)(F)F)cc(C(F)(F)F)c2)CC[C@@H](NC2CCOCC2C(F)(F)F)C1` (stereo partly specified) gave a half-inhibitory concentration (IC50) of 6 nM.
As to `CC(C)[C@]1(C(=O)NCc2cc(C(F)(F)F)cc(C(F)(F)F)c2)CC[C@@H](NC2CCOCC2(O)C(F)(F)F)C1` (stereo partly specified), inhibition was half-maximal at 5.5 nM (IC50).
As for `CC(C)[C@]1(C(=O)NCc2cc(C(F)(F)F)cc(C(F)(F)F)c2)CC[C@@H](NC2CCSC2)C1` (stereo partly specified), the figure is 22 nM; as for `CC(C)[C@]1(C(=O)NCc2cc(C(F)(F)F)cc(C(F)(F)F)c2)CC[C@@H](NC2CCOCC2F)C1` (stereo partly specified), 51.1 nM; as for `CC(C)[C@]1(C(=O)NCc2cc(C(F)(F)F)cc(C(F)(F)F)c2)CC[C@@H](NC2CCSCC2)C1`, 36 nM.
To `CC(C)[C@]1(C(=O)NCc2cc(C(F)(F)F)cc(C(F)(F)F)c2)CC[C@@H](NC2CCc3ccccc3C2)C1` (stereo partly specified) belongs 187 nM; to `CC(C)[C@]1(C(=O)NCc2cc(C(F)(F)F)cc(C(F)(F)F)c2)CC[C@@H](NC2CCOCC2C2CC2)C1` (stereo partly specified), 7.8 nM.
The compound `CC1CC(N[C@@H]2CC[C@@](C(=O)NCc3cc(C(F)(F)F)cc(C(F)(F)F)c3)(C(C)C)C2)CCO1` (stereo partly specified) had an IC50 of 766 nM.
Regarding `CC1COCCC1N[C@@H]1CC[C@@](C(=O)NCc2cc(C(F)(F)F)cc(C(F)(F)F)c2)(C(C)C)C1` (stereo partly specified), inhibition was half-maximal at 239 nM (IC50).
Compound `CC(C)[C@]1(C(=O)NCc2cc(C(F)(F)F)cc(C(F)(F)F)c2)CC[C@@H](NC2CCOCC2(C)C)C1` (stereo partly specified) had a concentration for half-maximal inhibition (IC50) of 28 nM.
As for `CC(C)[C@]1(C(=O)NCc2cc(C(F)(F)F)cc(C(F)(F)F)c2)CC[C@@H](NC2CCCOC2)C1` (stereo partly specified), the figure is 4.6 nM; as for `CCCC1COCCC1N[C@@H]1CC[C@@](C(=O)NCc2cc(C(F)(F)F)cc(C(F)(F)F)c2)(C(C)C)C1` (stereo partly specified), 3 nM.
